# Laboratory results reported in the NIST ThermoML archive (doi:10.1016/j.jct.2005.07.017).
# Numbers after ± are expanded uncertainties.
# Conditions: 298.15 K; 101.33 kPa; Liquid
row,mass density [kg/m3],SMILES
1,735.99 ± 0.86,COC(C)(C)C [2-methoxy-2-methylpropane]
2,848.1 ± 0.73,CC1CCCO1 (centres undefined) [2-methyltetrahydrofuran]
3,698.73 ± 0.86,CCCCCCCC [octane]
4,882.09 ± 0.64,C1CCOC1 [tetrahydrofuran]
